Assay [1] has as its target T1, NLRP3 inflammasome assembly (ASC speck) (Mus musculus, UniProt Q8R4B8).
T1 construct: host or cells: mouse PBMCs; mouse bone-marrow derived macrophages; mouse whole blood (C57BL/6 in the ex vivo study)
Put plainly: Inhibition of ASC speck formation by immunofluorescence in LPS + nigericin treated mouse BMDMs. In kind it is cell-based. The method, then:
Mouse BMDMs (2.5 × 10^4 cells/well) were plated in Collagen-IV coated 96-well plates. On the day of the assay, cells were washed with serum-free media then primed with 100 ng/mL LPS for 3 h in DMEM/F12 (1:1) containing L-glutamine. JT002 or DMSO was added to each well and incubated at 37 °C for 30 min prior to stimulation with 10 μM nigericin for 1.5 h. Cells were briefly centrifuged, rinsed with PBS, and fixed with 4% formaldehyde in PBS overnight at 4 °C. Cells were blocked and permeabilized in PBS with 10% goat serum, 1% FBS, 0.5% Triton X-100 for 30 min at 37 °C and incubated with ASC antibody (Millipore-Sigma, Cat #04-147) overnight at 4 °C. Cells were incubated with anti-mouse IgG Alexa Fluor-488 for 1 h at 37 °C. Nuclei were stained with Hoechst 33342 in PBS for 5 min and imaged using a CellInsight CX7 High-Content Screening Platform (ThermoFisher) at Phenovista Biosciences (San Diego, CA, USA).

For assay [2], the system named is OVA sensitized, OVA challenged and iTreg transferred CD8α-/- mice. The experiment in a line: Murine model of iTreg induced IL-17-dependent neutrophilic asthma. It counts as in vivo, mouse. As to the method: In an allergen-dependent, inducible regulatory T cell (iTreg) model of IL-17-dependent neutrophilic asthma, ovalbumin (OVA) sensitized recipient CD8α^−/− mice are administered iTreg cells intratracheally (i.t.) on Day 26 after the first OVA challenge and subsequently challenged with OVA on Days 26–28[48] (Fig. 5A). This model elicits TH17-dependent IL-17 release that promotes airway neutrophilia and enhanced airway hyperresponsiveness (AHR) to inhaled methacholine. We investigated the effect of JT002 at two doses in OVA sensitized, OVA challenged and iTreg transferred CD8α^−/− mice. JT002 was administered to mice once daily (QD) by oral gavage (p.o.) on Days 23–29 at 2.5 mg/kg (n = 3/group) and at 25 mg/kg (n = 7/group) before evaluation of airway hyperresponsiveness (AHR) and airway inflammation on Day 30 (Fig. 5A). Additional control groups included vehicle treated disease animals (OVA/OVA + iTregs; n = 7/group), OVA sensitized, OVA challenged control animals (OVA/OVA; n = 6/group) and phosphate buffer saline (PBS) sensitized, OVA challenged animals (PBS/OVA; n = 4/group). […] Sensitization and challenge with OVA led to an increase in total serum IgE as well as OVA-specific serum IgE, IgG1 and IgG2b even in the absence of iTreg instillation (Fig. 5E, Supplementary Fig. 4C).
CD4^+CD25^− T cells were enriched from spleens of naïve C57BL/6 mice to > 98% purity with MACS beads (Miltenyi Biotec, Bergisch-Gladbach, Germany). Cells were washed, counted, and resuspended to a final concentration of 4 × 10^6 cells per mL and cultured in X-Vivo 15 (Lonza, Wakersville, MD) supplemented with 5 ng/mL IL-2 and stimulated with bound anti-CD3 and 2 μg/mL soluble anti-CD28 with 5 ng/mL TGF-β for five to seven days to generate iTregs. Female CD8α^−/− C57BL6/j mice were sensitized by intraperitoneal injection of 20 μg OVA (Sigma Aldrich, St. Louis, MO) emulsified in 2.25 mg alum hydroxide (Imject Alum, Pierce, Rockford, IL) in a total volume of 100 μL on Days 0 and 14. Sensitized and challenged mice, denoted OVA/OVA, and non-sensitized but challenged littermates (PBS/OVA) received aerosol challenges for 20 min each day on three consecutive days (Days 26–28) with 1% OVA in PBS using an ultrasonic nebulizer (Omron, Vernon Hills, IL). On Day 26, differentiated iTregs cells generated in vitro were washed and adoptively transferred (5 × 10^5 in 50 μL of PBS) into OVA/OVA mice, denoted as OVA/OVA + iTregs. OVA/OVA + iTregs mice were dosed orally with JT002 at 2.5 or 25 mg/kg once daily on Days 23–29 or with vehicle (0.5% methyl cellulose, 0.25% Tween 80 in 50 mM NaH2PO4/Na2HPO4 at pH 8).
Determination of airway hyperresponsiveness (AHR) AHR was assessed on Day 30 (iTreg model) or 3 h after the O3 exposure (ozone model) as a change in airway resistance (cm H2O/mL/s) after challenge with aerosolized methacholine with using a whole body plethysmograph-based system (National Jewish Medical and Research Center, Denver, CO). Methacholine aerosol was administered by nebulization in increasing concentrations (12.5–100 mg/mL) and RL was continuously computed by fitting flow, volume, and pressure to an equation of motion (Labview, National Instruments, Dallas, TX). Bronchoalveolar Lavage Immediately after assessment of AHR, lungs were lavaged via the tracheal tube with 1 mL of Hanks’ balanced salt solution (Gibco, Grand Island, NY). Total cell numbers were counted. Differential cell counts for neutrophils and macrophages were performed in a blinded fashion by counting at least 200 cells on cytocentrifuged preparations (Model Cytospin 3, Shandon Ltd, Runcorn, UK) stained with Leukostat (Fisher Diagnostics, Fair Lawn, NJ). Cell-free BAL fluid was stored at − 80 °C until measurements of cytokine levels by ELISA (eBioscience, San Diego, CA) were performed. Blood Collection Immediately following AHR measurement, mice were euthanized by exsanguination and blood collected for serum. Samples were stored at − 80 °C for subsequent measurement of immunoglobulin levels by ELISA. […]

[3] abbreviates: low dose 2.5 mg/kg p.o. QD Days 23–29.

T1 sequence (Q8R4B8 whole entry): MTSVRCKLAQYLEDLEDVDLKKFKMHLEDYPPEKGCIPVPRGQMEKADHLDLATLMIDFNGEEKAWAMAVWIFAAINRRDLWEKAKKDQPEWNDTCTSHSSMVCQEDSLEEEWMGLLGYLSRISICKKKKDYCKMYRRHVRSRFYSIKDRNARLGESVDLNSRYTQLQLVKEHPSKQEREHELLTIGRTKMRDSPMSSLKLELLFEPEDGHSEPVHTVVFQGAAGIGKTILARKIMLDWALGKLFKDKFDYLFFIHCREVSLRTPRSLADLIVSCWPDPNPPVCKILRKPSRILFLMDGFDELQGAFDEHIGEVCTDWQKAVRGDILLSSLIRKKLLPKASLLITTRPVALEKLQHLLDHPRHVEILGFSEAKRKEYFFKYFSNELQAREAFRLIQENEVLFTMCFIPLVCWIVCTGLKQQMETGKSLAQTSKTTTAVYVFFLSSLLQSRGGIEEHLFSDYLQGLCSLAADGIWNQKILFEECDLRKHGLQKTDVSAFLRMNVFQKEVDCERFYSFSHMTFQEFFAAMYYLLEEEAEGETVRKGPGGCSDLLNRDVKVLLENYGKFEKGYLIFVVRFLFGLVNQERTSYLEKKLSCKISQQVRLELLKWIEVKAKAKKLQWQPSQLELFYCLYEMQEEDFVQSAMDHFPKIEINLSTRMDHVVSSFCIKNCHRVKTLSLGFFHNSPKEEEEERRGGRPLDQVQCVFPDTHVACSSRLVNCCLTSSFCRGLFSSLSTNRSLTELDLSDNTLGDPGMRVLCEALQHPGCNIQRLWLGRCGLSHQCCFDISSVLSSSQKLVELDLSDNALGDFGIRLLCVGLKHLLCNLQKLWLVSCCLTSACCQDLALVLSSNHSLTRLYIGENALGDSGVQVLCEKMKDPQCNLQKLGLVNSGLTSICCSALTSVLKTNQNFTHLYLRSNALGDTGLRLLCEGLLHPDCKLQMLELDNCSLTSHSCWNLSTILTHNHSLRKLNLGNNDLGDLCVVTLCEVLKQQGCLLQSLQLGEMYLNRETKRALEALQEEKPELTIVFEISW

By IC50 is commonly meant the concentration that gives 50% inhibition. Regarding `CO[C@@H]1COc2c(S(=O)(=O)NC(=O)Nc3c4c(cc5c3CCC5)CCC4)cnn2C1` [JT002], in assay [1] (Mouse BMDM, read-out: Geo Av IC50, ASC specks), the IC50 stood at 3 nM. Moreover, the ASC speck formation result in assay [1] (mBMDMs, 2 µM JT002 prior to NLRP3 activation) was “completely prevented ASC speck formation”. Moreover, in assay [2] (25 mg/kg p.o. QD Days 23–29), the “BAL IL-6 concentration” value was “significantly decreased”, the “BAL IL-10 concentration” value was “strong trend for increased”, the “BAL IL-17 concentration” value is “significantly decreased” and the “BAL INFγ concentration” value is recorded as “increased”. For the same molecule, in assay [2] (25 mg/kg p.o. QD Days 23–29), the airway eosinophilia entry is “no effect”, the “airway hyperresponsiveness (AHR)” value is “significantly decreased”, the airway neutrophilia entry is reported as “significantly decreased” and the “submucosal inflammatory cell infiltration” value was “visibly decreased”. Moreover, in assay [2] (high dose (25 mg/kg)), the “serum OVA-specific IgE” value is reported as “significant decrease”, the “serum OVA-specific IgG isoforms” value is “no significant effect” and the “serum total IgE” value is recorded as “significant decrease”. In assay [2] (setting [3]), the “airway hyperresponsiveness (AHR)” value is listed as “no significant changes” and the airway inflammation result is recorded as “no significant changes”.
